These results are taken from US11866414B2, “Substituted heterocyclic compounds” (BRISTOL-MYERS SQUIBB COMPANY, priority 2021, dated 2024).

Data set [1] deals with IFNα-induced STAT phosphorylation (pSTAT5). In words: IFNα-induced STAT phosphorylation in human whole blood. In kind it is cell-based. To be noted: 1 h compound, 1000 U/mL IFNα A/D 15 min, CD3 positive population, read-out: Human Whole blood IFNa pSTAT5 IC50.
Data set [2] in a line: Brain penetration in vivo assay (brain and plasma exposure). As to conditions: for Kp at 1 h: C57BL6, brain / plasma, 10 mg/kg, mouse, 10 mpk, po, read-out: Ratio of exposure in brain to plasma (mouse) (1 h, 10 mpk, po). The procedure:
Brain Penetration In Vivo Assay
A pharmacokinetic study was performed using C57BL6 wild-type mice (n=3 per experiment) to determine brain and plasma exposure of compounds of the invention. The compound was administered orally in a solution of 5% ETHANOL: 90% PEG 300; 5% TPGS at 5 mL/kg for a final concentration of 10 mg/kg. Nice were euthanized 1 hour post-dose and plasma and brain were collected and frozen for analysis. Brain tissues were homogenized in a 1:1 volume of blank C57BL6 mouse plasma. Concentrations of the compound in plasma and brain homogenate were determined by LC-MS analysis.

A further data set can be described thus: in vitro. To be noted: human, Caco-2, pH 7.4.
The next data set deals with Caco-2 cells. To be noted: human, Caco-2, 2 h, 3 μM, pH 7.4.

The IC50 is the concentration needed to halve the response being measured. In general, Papp A→B refers to how fast a substance crosses the layer from the apical side. Higher therefore signals ready permeation. A word on the efflux ratio: it is a quotient of directional permeabilities that is used to spot active efflux. As to `[2H]C([2H])([2H])NC(=O)c1nnc(NC(=O)C2CC2)cc1Nc1cccc(-c2cnn(CC)n2)c1OC` [Example 1, 6-(cyclopropanecarboxamido)-4-((2-methoxy-3-(2-ethyl-2H-1,2,3-triazol-4-yl)phenyl)amino)-N-(methyl-d3)pyridazine-3-carboxamide], the IC50 in data set [1] was 260 nM. Besides, in data set [2], the Kp at 1 h is 0.7. In the data set “in vitro”, the Papp A→B at 2 h, 3 μM came to 29.1 ×10⁻⁶ cm/s and the efflux ratio at 2 h, 3 μM worked out at 0.8.
As for `[2H]C([2H])([2H])NC(=O)c1nnc(NC(=O)C2CC2)cc1Nc1cccc(-c2cnn(CC(F)F)n2)c1OC` [Example 3, 6-cyclopropaneamido-4-({3-[2-(2,2-difluoroethyl)-2H-1,2,3-triazol-4-yl]-2-methoxyphenyl}amino)-N—(^2H3)methylpyridazine-3-carboxamide], the “Ratio of exposure in brain to plasma (mouse) (1 h, 10 mpk, po)” value (from here on “Ratio of exposure in brain to plasma”) in data set [2] came out at 0.3. In addition, in the data set with Caco-2 cells, the “CACO2 (A-B)” value is given as 368 nm/s.
In the case of `[2H]C([2H])([2H])NC(=O)c1nnc(NC(=O)C2CC2)cc1Nc1cc(F)cc(-c2cnn(C)n2)c1OC` [Example 4, 6-cyclopropaneamido-4-{[5-fluoro-2-methoxy-3-(2-methyl-2H-1,2,3-triazol-4-yl)phenyl]amino}-N—(^2H3)methylpyridazine-3-carboxamide], in data set [1], the IC50 is 290 nM. Also, the Kp at 1 h in data set [2] was determined as 0.8. Also, in the data set “in vitro”, the Papp A→B at 2 h, 3 μM is 32.7 ×10⁻⁶ cm/s and the efflux ratio at 2 h, 3 μM was 0.6.
On the same counts, the results for `[2H]C([2H])([2H])NC(=O)c1nnc(Nc2ccc(OC)nn2)cc1Nc1cccc(-c2cnn(C)n2)c1OC` [Example 5, 4-{[2-methoxy-3-(2-methyl-2H-1,2,3-triazol-4-yl)phenyl]amino}-6-[(6-methoxypyridazin-3-yl)amino]-N—(^2H3)methylpyridazine-3-carboxamide] are 60 nM, 0.2, 20.9 ×10⁻⁶ cm/s and 0.9.
Take `[2H]C([2H])([2H])NC(=O)c1nnc(NC(=O)C2CC2)cc1Nc1cc(C)cc(-c2cnn(C3CC3)n2)c1OC` [Example 9, 6-cyclopropaneamido-4-{[3-(2-cyclopropyl-2H-1,2,3-triazol-4-yl)-2-methoxy-5-methylphenyl]amino}-N—(^2H3)methylpyridazine-3-carboxamide]: the IC50 in data set [1] was 100 nM. Moreover, the Kp at 1 h in data set [2] came out at 0.2. For the same molecule, in the data set “in vitro”, the Papp A→B at 2 h, 3 μM was 14 ×10⁻⁶ cm/s and the efflux ratio at 2 h, 3 μM was determined as 0.3.
On to `[2H]C([2H])([2H])NC(=O)c1nnc(NC(=O)C2CC2)cc1Nc1ccc(F)c(-c2cnn(CC)n2)c1OC` [Example 10, 6-cyclopropaneamido-4-{[3-(2-ethyl-2H-1,2,3-triazol-4-yl)-4-fluoro-2-methoxyphenyl]amino}-N—(^2H3)methylpyridazine-3-carboxamide], for which the “Ratio of exposure in brain to plasma” value in data set [2] came to 0.1. Besides, the “CACO2 (A-B)” value with Caco-2 cells came to 340 nm/s.
Turning to `[2H]C([2H])([2H])NC(=O)c1nnc(NC(=O)C2CC2)cc1Nc1cccc(-c2cnn(C3CC3)n2)c1OC` [Example 11, 6-cyclopropaneamido-4-{[3-(2-cyclopropyl-2H-1,2,3-triazol-4-yl)-2-methoxyphenyl]amino}-N—(^2H3)methylpyridazine-3-carboxamide], the IC50 in data set [1] turned out to be 120 nM. For the same molecule, the Kp at 1 h in data set [2] came out at 0.5. In the data set “in vitro”, the apparent permeability from apical to basolateral (Papp A→B) at 2 h, 3 μM was 9.7 ×10⁻⁶ cm/s and the efflux ratio at 2 h, 3 μM came out at 0.7.
As to `[2H]C([2H])([2H])NC(=O)c1nnc(NC(=O)C2CC2)cc1Nc1cc(F)cc(-c2cnn(C3CC3)n2)c1OC` [Example 12, 6-cyclopropaneamido-4-{[3-(2-cyclopropyl-2H-1,2,3-triazol-4-yl)-5-fluoro-2-methoxyphenyl]amino}-N—(^2H3)methylpyridazine-3-carboxamide], the “Ratio of exposure in brain to plasma” value in data set [2] was 0.7. Further, in the data set with Caco-2 cells, the “CACO2 (A-B)” value is given as 173 nm/s.
Turning to `[2H]C([2H])([2H])NC(=O)c1nnc(NC(=O)C2CC2)cc1Nc1nccc(-c2cnn(C3CC3)n2)c1OC` [Example 14, 6-cyclopropaneamido-4-{[4-(2-cyclopropyl-2H-1,2,3-triazol-4-yl)-3-methoxypyridin-2-yl]amino}-N—(^2H3)methylpyridazine-3-carboxamide], the “Ratio of exposure in brain to plasma” value in data set [2] was 0.8. In addition, the “CACO2 (A-B)” value with Caco-2 cells was 446 nm/s.
As to `[2H]C([2H])([2H])NC(=O)c1nnc(NC(=O)C2CC2)cc1Nc1cc(Cl)cc(-c2cnn(CC)n2)c1OC` [Example 15, 4-{[5-chloro-3-(2-ethyl-2H-1,2,3-triazol-4-yl)-2-methoxyphenyl]amino}-6-cyclopropaneamido-N—(^2H3)methylpyridazine-3-carboxamide], the “CACO2 (A-B)” value with Caco-2 cells amounted to 63 nm/s.
Turning to `[2H]C([2H])([2H])NC(=O)c1nnc(NC(=O)C2CC2)cc1Nc1ccc(F)c(-c2cnn(C3CC3)n2)c1OC` [Example 16, 6-cyclopropaneamido-4-{[3-(2-cyclopropyl-2H-1,2,3-triazol-4-yl)-4-fluoro-2-methoxyphenyl]amino}-N—(^2H3)methylpyridazine-3-carboxamide], in the data set on Caco-2 cells, the “CACO2 (A-B)” value worked out at 392 nm/s.
As for `[2H]C([2H])([2H])NC(=O)c1nnc(NC(=O)C2CC2)cc1Nc1ccc(F)c(-c2cnn(C)n2)c1OC` [Example 18, 6-cyclopropaneamido-4-{[4-fluoro-2-methoxy-3-(2-methyl-2H-1,2,3-triazol-4-yl)phenyl]amino}-N—(^2H3)methylpyridazine-3-carboxamide], the “CACO2 (A-B)” value in the data set on Caco-2 cells is recorded as 654 nm/s.
Take `[2H]C([2H])([2H])NC(=O)c1nnc(NC(=O)C2CC2)cc1Nc1cc(OC)cc(-c2cnn(C)n2)c1OC` [Example 24, 6-(cyclopropane-carboxamido)-4-((2,5-dimethoxy-3-(2-methyl-2H-1,2,3-triazol-4-yl)phenyl)amino)-N-(methyl-d3)pyridazine-3-carboxamide]: the IC50 in data set [1] was found to be 120 nM. Moreover, the Kp at 1 h in data set [2] was found to be 0.2. Also, in the data set “in vitro”, the Papp A→B at 2 h, 3 μM came to 33 ×10⁻⁶ cm/s and the efflux ratio at 2 h, 3 μM was 0.5.
As to `[2H]C([2H])([2H])NC(=O)c1nnc(NC(=O)C2CC2)cc1Nc1nccc(-c2cnn(C)n2)c1OC` [Example 36, 6-(cyclopropanecarboxamido)-4-((3-methoxy-4-(2-methyl-2H-1,2,3-triazol-4-yl)pyridin-2-yl)amino)-N-(methyl-d3)pyridazine-3-carboxamide], in data set [1], the IC50 was found to be 50 nM. Moreover, the Kp at 1 h in data set [2] was determined as 0.8. Moreover, in the data set “in vitro”, the apical-to-basolateral permeability (Papp A→B) at 2 h, 3 μM turned out to be 32.8 ×10⁻⁶ cm/s and the efflux ratio at 2 h, 3 μM amounted to 0.6.
For the molecule `[2H]C([2H])([2H])NC(=O)c1nnc(NC(=O)[C@@H]2C[C@@H]2F)cc1Nc1nccc(-c2cnn(C)n2)c1OC` [Example 37, 6-((1S,2S)-2-fluorocyclopropane-1-carboxamido)-4-((3-methoxy-4-(2-methyl-2H-1,2,3-triazol-4-yl)pyridin-2-yl)amino)-N-(methyl-d3)pyridazine-3-carboxamide], the IC50 in data set [1] was 20 nM. For the same molecule, in data set [2], the Kp at 1 h worked out at 0.1. Moreover, in the data set “in vitro”, the Papp A→B at 2 h, 3 μM is 49.4 ×10⁻⁶ cm/s and the efflux ratio at 2 h, 3 μM came to 0.9.
Consider `[2H]C([2H])([2H])NC(=O)c1nnc(NC(=O)[C@@H]2C[C@H]2C)cc1Nc1nccc(-c2cnn(C)n2)c1OC` [Example 41, 4-((3-methoxy-4-(2-methyl-2H-1,2,3-triazol-4-yl)pyridin-2-yl)amino)-N-(methyl-d3)-6-((1R,2R)-2-methylcyclopropane-1-carboxamido)pyridazine-3-carboxamide], for which the IC50 in data set [1] amounted to 80 nM. Further, the Kp at 1 h in data set [2] is 0.3. In “in vitro”, the Papp A→B at 2 h, 3 μM came to 33.9 ×10⁻⁶ cm/s and the efflux ratio at 2 h, 3 μM amounted to 0.5.
On to `[2H]C([2H])([2H])NC(=O)c1nnc(NC(=O)C2CC2)cc1Nc1cccc(-c2cnn(C([2H])([2H])[2H])n2)c1OC` [Example 52, 6-cyclopropaneamido-4-({2-methoxy-3-[2-(^2H3)methyl-2H-1,2,3-triazol-4-yl]phenyl}amino)-N—(^2H3)methylpyridazine-3-carboxamide], for which the “CACO2 (A-B)” value in the data set with Caco-2 cells amounted to 482 nm/s.
Turning to `[2H]C([2H])([2H])NC(=O)c1nnc(NC(=O)C2CC2)cc1Nc1cccc(-c2cnn(C3CCC3)n2)c1OC` [Example 54, 4-{[3-(2-cyclobutyl-2H-1,2,3-triazol-4-yl)-2-methoxyphenyl]amino}-6-cyclopropaneamido-N—(^2H3)methylpyridazine-3-carboxamide], the “CACO2 (A-B)” value with Caco-2 cells turned out to be 180 nm/s.
Take `[2H]C([2H])([2H])NC(=O)c1nnc(NC(=O)C2CC2)cc1Nc1ccc(C2CC2)c(-c2cnn(C)n2)c1OC` [Example 55, 6-cyclopropaneamido-4-{[4-cyclopropyl-2-methoxy-3-(2-methyl-2H-1,2,3-triazol-4-yl)phenyl]amino}-N—(^2H3)methylpyridazine-3-carboxamide]: the “CACO2 (A-B)” value with Caco-2 cells amounted to 507 nm/s.
In the case of `[2H]C([2H])([2H])NC(=O)c1nnc(NC(=O)C2CC2)cc1Nc1cccc(-c2cnn(C)n2)c1OC(F)F` [Example 56, 6-cyclopropaneamido-4-{[2-(difluoromethoxy)-3-(2-methyl-2H-1,2,3-triazol-4-yl)phenyl]amino}-N—(^2H3)methylpyridazine-3-carboxamide], the “CACO2 (A-B)” value in the data set with Caco-2 cells worked out at 432 nm/s.
`[2H]C([2H])([2H])NC(=O)c1nnc(NC(=O)C2CC2)cc1Nc1nccc(-c2cnn(C)n2)c1OC(F)F` [Example 60, 6-cyclopropaneamido-4-{[3-(difluoromethoxy)-4-(2-methyl-2H-1,2,3-triazol-4-yl)pyridin-2-yl]amino}-N—(^2H3)methylpyridazine-3-carboxamide]: the “CACO2 (A-B)” value in the data set on Caco-2 cells is 340 nm/s.
